From the supplement of paper PMC4862054

Assays:
BT-474 [1] = conditions: 72 h
Outline: (§1)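 Breast cancer cell lines (20 µl suspension) were seeded into 384-well plates holding compound at 5 concentrations in 10-fold steps over a compound-specific 10,000-fold range, then incubated 72 h. Cell death was read first by CellTox Green fluorescence (485/520 nm), then viability by CellTiter-Glo luminescence after 10 min at room temperature. Each plate was normalised to 0.1 % DMSO and a positive kill control. EC50 was fitted from the dose-response curves and censored at the top concentration.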

HDQ-P1 [2] = conditions: 72 h
Outline: as §1

MDA-MB-468 [3] = conditions: 72 h
Outline: as §1

BT-474 [4] = assay: drug sensitivity score (DSS), CellTox Green (DSS (AUC-based score)); higher = stronger drug effect (viability inhibition or cytotoxicity); extreme values may be limits of the assay; conditions: incubation time: 72 h
Outline: (§2)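 After 72 h of incubation in 384-well plates with compound at 5 concentrations (10-fold steps, 10,000-fold range set per compound), breast cancer cell lines seeded in 20 µl suspension were read first for CellTox Green fluorescence at 485/520 nm. CellTiter-Glo luminescence was measured next, after 10 min at room temperature. Normalisation on each plate used 0.1 % DMSO and a positive kill control, and the drug sensitivity score was computed from the area under the fitted dose-response curve.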

DU-4475 [5] = assay: as above; conditions: incubation time: 72 h
Outline: as §2

HCC1937 [6] = assay: as above; conditions: incubation time: 72 h
Outline: as §2

HDQ-P1 [7] = assay: as above; conditions: incubation time: 72 h
Outline: as §2

MDA-MB-231 [8] = assay: as above; conditions: incubation time: 72 h
Outline: as §2

MDA-MB-436 [9] = assay: as above; conditions: incubation time: 72 h
Outline: as §2

MDA-MB-453 [10] = assay: as above; conditions: incubation time: 72 h
Outline: as §2

MFM-223 [11] = assay: as above; conditions: incubation time: 72 h
Outline: as §2

BT-474 [12] = assay: normalised viability (% of control), CellTiter-Blue; higher = more viable cells (about 100 = DMSO control); conditions: 100 nM; incubation time: 72 h
Procedure: (§3)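 DSRT, CellTiter-Blue viability, 72 h incubation. Signal is normalised to DMSO and benzethonium chloride controls. Value is the normalised response at dose 3.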

BT-549 = assay: as above; conditions: 100 nM; incubation time: 72 h
Procedure: as §3

CAL-120 = assay: as above; conditions: 100 nM; incubation time: 72 h
Procedure: as §3

CAL-148 = assay: as above; conditions: 10 nM; incubation time: 72 h
Procedure: as §3

CAL-51 = assay: as above; conditions: 10 nM; incubation time: 72 h
Procedure: as §3

CAL-85-1 = assay: as above; conditions: 10 nM; incubation time: 72 h
Procedure: as §3

DU-4475 [13] = assay: as above; conditions: 10 nM; incubation time: 72 h
Procedure: as §3

HCC1143 = assay: as above; conditions: 100 nM; incubation time: 72 h
Procedure: as §3

HCC1599 = assay: as above; conditions: 100 nM; incubation time: 72 h
Procedure: as §3

HCC1937 [14] = assay: as above; conditions: 100 nM; incubation time: 72 h
Procedure: as §3

HDQ-P1 [15] = assay: as above; conditions: 10 nM; incubation time: 72 h
Procedure: as §3

Hs578T = assay: as above; conditions: 100 nM; incubation time: 72 h
Procedure: as §3

MDA-MB-231 [16] = assay: as above; conditions: 100 nM; incubation time: 72 h
Procedure: as §3

MDA-MB-436 [17] = assay: as above; conditions: 100 nM; incubation time: 72 h
Procedure: as §3

MDA-MB-453 [18] = assay: as above; conditions: 10 nM; incubation time: 72 h
Procedure: as §3

MDA-MB-468 [19] = assay: as above; conditions: 100 nM; incubation time: 72 h
Procedure: as §3

MFM-223 [20] = assay: as above; conditions: 100 nM; incubation time: 72 h
Procedure: as §3

SK-BR-3 = assay: as above; conditions: 100 nM; incubation time: 72 h
Procedure: as §3

SMILES: Cc1ccc([N+](=O)[O-])cc1S(=O)(=O)N(C)/N=C/c1cnc2ccc(Br)cn12 [PIK-75]
- EC50, CellTiter-Glo (BT-474 [1]): 26.1 nM
- EC50, CellTiter-Glo (HDQ-P1 [2]): 32.5 nM
- EC50, CellTiter-Glo (MDA-MB-468 [3]): 0.0274 µM
- drug sensitivity score (BT-474 [4]): 20.3
- drug sensitivity score (DU-4475 [5]): 7.23
- drug sensitivity score (HCC1937 [6]): 2.32
- drug sensitivity score (HDQ-P1 [7]): 11.6
- drug sensitivity score (MDA-MB-231 [8]): 40
- drug sensitivity score (MDA-MB-436 [9]): 0
- drug sensitivity score (MDA-MB-453 [10]): 7.11
- drug sensitivity score (MFM-223 [11]): 12.3

SMILES: CC1(C)CNc2cc(NC(=O)c3cccnc3NCc3ccncc3)ccc21 [Motesanib]
- EC50, CellTiter-Glo (MDA-MB-468 [3]): > 10 µM
- normalised viability (BT-474 [12]): 87.7%
- normalised viability (BT-549): 88.1%
- normalised viability (CAL-120): 71.9%
- normalised viability (CAL-148): 82.5%
- normalised viability (CAL-51): 111%
- normalised viability (CAL-85-1): 91.4%
- normalised viability (DU-4475 [13]): 90.4%
- normalised viability (HCC1143): 79.1%
- normalised viability (HCC1599): 101%
- normalised viability (HCC1937 [14]): 90.5%
- normalised viability (HDQ-P1 [15]): 88.1%
- normalised viability (Hs578T): 90.8%
- normalised viability (MDA-MB-231 [16]): 79.2%
- normalised viability (MDA-MB-436 [17]): 79.7%
- normalised viability (MDA-MB-453 [18]): 82.7%
- normalised viability (MDA-MB-468 [19]): 113%
- normalised viability (MFM-223 [20]): 80.2%
- normalised viability (SK-BR-3): 79.3%
- drug sensitivity score (BT-474 [4]): 0
- drug sensitivity score (DU-4475 [5]): 0
- drug sensitivity score (HCC1937 [6]): 0
- drug sensitivity score (HDQ-P1 [7]): 0
- drug sensitivity score (MDA-MB-231 [8]): 0
- drug sensitivity score (MDA-MB-436 [9]): 0
- drug sensitivity score (MDA-MB-453 [10]): 0
- drug sensitivity score (MFM-223 [11]): 0

SMILES: CC1=C2C[C@H]3[C@@H](CC=C4C[C@@H](O)CC[C@@]43C)[C@@H]2CC[C@]12O[C@@H]1C[C@H](C)CN[C@H]1[C@H]2C [Cyclopamine]
- normalised viability (BT-474 [12]): 124%
- normalised viability (BT-549): 111%
- normalised viability (CAL-120): 88.2%
- normalised viability (CAL-148): 113%
- normalised viability (CAL-51): 114%
- normalised viability (CAL-85-1): 109%
- normalised viability (DU-4475 [13]): 107%
- normalised viability (HCC1143): 116%
- normalised viability (HCC1599): 113%
- normalised viability (HCC1937 [14]): 100%
- normalised viability (HDQ-P1 [15]): 120%
- normalised viability (Hs578T): 84.1%
- normalised viability (MDA-MB-231 [16]): 84.9%
- normalised viability (MDA-MB-436 [17]): 96.3%
- normalised viability (MDA-MB-453 [18]): 123%
- normalised viability (MDA-MB-468 [19]): 94.4%
- normalised viability (MFM-223 [20]): 103%
- normalised viability (SK-BR-3): 90.8%
- drug sensitivity score (BT-474 [4]): 0
- drug sensitivity score (DU-4475 [5]): 0
- drug sensitivity score (HDQ-P1 [7]): 0
- drug sensitivity score (MDA-MB-231 [8]): 0
- drug sensitivity score (MDA-MB-436 [9]): 0
- drug sensitivity score (MDA-MB-453 [10]): 0
- drug sensitivity score (MFM-223 [11]): 0

SMILES: CC1(C)CCC(CN2CCN(c3ccc(C(=O)NS(=O)(=O)c4ccc(NCC5CCOCC5)c([N+](=O)[O-])c4)c(Oc4cnc5[nH]ccc5c4)c3)CC2)=C(c2ccc(Cl)cc2)C1 [ABT-199]
- EC50, CellTiter-Glo (MDA-MB-468 [3]): > 10 µM
- drug sensitivity score (BT-474 [4]): 0
- drug sensitivity score (DU-4475 [5]): 0
- drug sensitivity score (HDQ-P1 [7]): 0
- drug sensitivity score (MDA-MB-231 [8]): 3.14
- drug sensitivity score (MDA-MB-436 [9]): 0
- drug sensitivity score (MDA-MB-453 [10]): 0
- drug sensitivity score (MFM-223 [11]): 0

SMILES: O=NN(CCCl)C(=O)NCCCl [Carmustine]
- normalised viability (BT-474 [12]): 111%
- normalised viability (BT-549): 111%
- normalised viability (CAL-120): 91.3%
- normalised viability (CAL-148): 91.5%
- normalised viability (CAL-51): 105%
- normalised viability (CAL-85-1): 95%
- normalised viability (DU-4475 [13]): 108%
- normalised viability (HCC1143): 91.8%
- normalised viability (HCC1599): 114%
- normalised viability (HCC1937 [14]): 87.8%
- normalised viability (HDQ-P1 [15]): 105%
- normalised viability (Hs578T): 96.3%
- normalised viability (MDA-MB-231 [16]): 90.8%
- normalised viability (MDA-MB-436 [17]): 119%
- normalised viability (MDA-MB-453 [18]): 109%
- normalised viability (MDA-MB-468 [19]): 123%
- normalised viability (MFM-223 [20]): 83.8%
- normalised viability (SK-BR-3): 102%
- drug sensitivity score (BT-474 [4]): 0
- drug sensitivity score (DU-4475 [5]): 0
- drug sensitivity score (HCC1937 [6]): 0
- drug sensitivity score (HDQ-P1 [7]): 0
- drug sensitivity score (MDA-MB-231 [8]): 0
- drug sensitivity score (MDA-MB-436 [9]): 0
- drug sensitivity score (MDA-MB-453 [10]): 0
- drug sensitivity score (MFM-223 [11]): 0

SMILES: COc1cc(F)c(F)c(Nc2ccc(I)cc2F)c1NS(=O)(=O)C1(C[C@H](O)CO)CC1 [RDEA119]
- normalised viability (BT-474 [12]): 98.7%
- normalised viability (BT-549): 77.4%
- normalised viability (CAL-120): 93.7%
- normalised viability (CAL-148): 93.6%
- normalised viability (CAL-51): 91.2%
- normalised viability (CAL-85-1): 97.3%
- normalised viability (DU-4475 [13]): 86%
- normalised viability (HCC1143): 90.8%
- normalised viability (HCC1599): 87.4%
- normalised viability (HCC1937 [14]): 87.7%
- normalised viability (HDQ-P1 [15]): 74.8%
- normalised viability (Hs578T): 76%
- normalised viability (MDA-MB-231 [16]): 45%
- normalised viability (MDA-MB-436 [17]): 90.4%
- normalised viability (MDA-MB-453 [18]): 78.3%
- normalised viability (MDA-MB-468 [19]): 86.1%
- normalised viability (MFM-223 [20]): 85%
- normalised viability (SK-BR-3): 90.7%

SMILES: C[C@]1(O)C[C@@H](c2nc(-c3ccc4ccc(-c5ccccc5)nc4c3)c3c(N)nccn32)C1 [Linsitinib]
- EC50, CellTiter-Glo (BT-474 [1]): 1090 nM
- EC50, CellTiter-Glo (HDQ-P1 [2]): 1010 nM
- EC50, CellTiter-Glo (MDA-MB-468 [3]): 4.14 µM
- drug sensitivity score (BT-474 [4]): 0
- drug sensitivity score (DU-4475 [5]): 0
- drug sensitivity score (HCC1937 [6]): 0
- drug sensitivity score (HDQ-P1 [7]): 0
- drug sensitivity score (MDA-MB-231 [8]): 4.69
- drug sensitivity score (MDA-MB-436 [9]): 14.3
- drug sensitivity score (MDA-MB-453 [10]): 0
- drug sensitivity score (MFM-223 [11]): 0

SMILES: Oc1ncnc2[nH]ncc12 [Allopurinol]
- normalised viability (BT-474 [12]): 106%
- normalised viability (BT-549): 87.3%
- normalised viability (CAL-120): 107%
- normalised viability (CAL-148): 108%
- normalised viability (CAL-51): 90%
- normalised viability (CAL-85-1): 102%
- normalised viability (DU-4475 [13]): 104%
- normalised viability (HCC1143): 113%
- normalised viability (HCC1599): 98.5%
- normalised viability (HCC1937 [14]): 94.5%
- normalised viability (HDQ-P1 [15]): 106%
- normalised viability (Hs578T): 94%
- normalised viability (MDA-MB-231 [16]): 109%
- normalised viability (MDA-MB-436 [17]): 108%
- normalised viability (MDA-MB-453 [18]): 110%
- normalised viability (MDA-MB-468 [19]): 105%
- normalised viability (MFM-223 [20]): 91.2%
- normalised viability (SK-BR-3): 103%
- drug sensitivity score (BT-474 [4]): 0
- drug sensitivity score (DU-4475 [5]): 0
- drug sensitivity score (HCC1937 [6]): 0
- drug sensitivity score (HDQ-P1 [7]): 0
- drug sensitivity score (MDA-MB-231 [8]): 0
- drug sensitivity score (MDA-MB-436 [9]): 0
- drug sensitivity score (MFM-223 [11]): 0
